# Calls of active or inactive are those of the source. No cut-off for these calls is given here.
# How the values were obtained:
# [1] = Cytotoxicity against cystinotic human fibroblasts at 50 uM after 72 hrs by Alamar blue assay; assay type: cell-based; conditions: fibroblast
# Fibroblast = experiment: Reduction of intralysosomal cystine in cystinotic human fibroblasts at 50 uM after 24 hrs by Bradford method relative to control; assay type: functional, cell-based
SMILES,Activity [1],Activity (Fibroblast)
NCCS [CYSTEAMINE],Non-toxic,Active
Cl.Cl.N[C@@H](Cc1ccccc1)C(=O)NCCSSCCNC(=O)CCC(=O)NCCSSCCNC(=O)CCC(=O)NCCSSCCNC(=O)[C@@H](N)Cc1ccccc1,Non-toxic,Active
Cl.Cl.NCCSSCCNC(=O)CCC(=O)NCCSSCCNC(=O)CCC(=O)NCCSSCCN,Non-toxic,Active
Cl.Cl.N[C@@H](Cc1ccccc1)C(=O)NCCSSCCNC(=O)CCCC(=O)NCCSSCCNC(=O)CCCC(=O)NCCSSCCNC(=O)[C@@H](N)Cc1ccccc1,Non-toxic,Active
Cl.Cl.NCCSSCCNC(=O)CCCC(=O)NCCSSCCNC(=O)CCCC(=O)NCCSSCCN,Non-toxic,Active

# — ChEMBL document CHEMBL1811882, “Synthesis and in vitro evaluation of novel pro-drugs for the treatment of nephropathic cystinosis” (Bioorg Med Chem, 2011)
